Tests used:
A/M2-V27A [1] = biological target: T1, A/M2-V27A (Influenza A virus, UniProt P0DOF5, V27A); assay type: cell-based
A/M2-A30T = A/M2-A30T (Influenza A virus, UniProt P0DOF5, A30T); assay type: cell-based, Influenza virus A/Udorn/72
A/M2-L26F = A/M2-L26F (Influenza A virus, UniProt P0DOF5, L26F); assay type: cell-based, Influenza virus A/Udorn/72
A/M2-V27G = A/M2-V27G (Influenza A virus, UniProt P0DOF5, V27G); assay type: cell-based, Influenza virus A/Udorn/72
A/M2-V27A [2] = biological target: T1, A/M2-V27A; assay type: cell-based, Influenza virus A/Udorn/72
A/M2-G34E = A/M2-G34E (Influenza A virus, UniProt P0DOF5, G34E); assay type: cell-based, Influenza virus A/Udorn/72
A/M2-S31N = A/M2-S31N (Influenza A virus, UniProt P0DOF5, S31N); assay type: cell-based, Influenza virus A/Udorn/72
[3] = test system: influenza virus, containing the A/M2-V27A mutation; assay type: cell-based

Cl.NNC1CCC2(CCCCC2)CC1 [Compound 31, N′-Spiro[5.5]undec-3-yl-hydrazinium chloride]
AM2 V27A % inhibition at 100 μM (A/M2-V27A [1]): 31 (7.1%)

CNC1CCC2(CCCCC2)CC1.Cl [Compound 9]
% remaining activity after application of 100 μM compound (A/M2-A30T): 101. ± 3.2% | % remaining activity after application of 100 μM compound (A/M2-L26F): 72.6 ± 8.4% | % remaining activity after application of 100 μM compound (A/M2-V27G): 89.6 ± 4.1% | % remaining activity after application of 100 μM compound (A/M2-V27A [2]): 70.2 ± 1.55% | % remaining activity after application of 100 μM compound (A/M2-G34E): 101.7 ± 2.8% | % remaining activity after application of 100 μM compound (A/M2-S31N): 100 ± 4.1%

Cl.NC1CCC2(CCCCC2)CC1 [Compound 8]
concentration at which plaque formation was reduced [3]: 5 µM | % remaining activity after application of 100 μM compound (A/M2-A30T): 98.1 ± 7.0% | % remaining activity after application of 100 μM compound (A/M2-L26F): 32.4 ± 3.3% | % remaining activity after application of 100 μM compound (A/M2-V27G): 87.9 ± 6.1% | % remaining activity after application of 100 μM compound (A/M2-V27A [2]): 46.6 ± 6.6% | % remaining activity after application of 100 μM compound (A/M2-G34E): 96. ± 5.9% | % remaining activity after application of 100 μM compound (A/M2-S31N): 99.1 ± 0.9% | inhibition of the mutant (in words) (A/M2-S31N): little inhibition

Cl.NC1CSC2(CCCCC2)SC1 [Compound 33, 1,5-Dithia-spiro[5.5]undec-3-yl-ammonium chloride]
AM2 V27A % inhibition at 100 μM (A/M2-V27A [1]): 33 (0%) 34 (46.9%)

N=C(N)NC1CCC2(CCCCC2)CC1 [Compound 35]
AM2 V27A % inhibition at 100 μM (A/M2-V27A [1]): 35 (14.6%)

NC1CSC2(CCCCCC2)SC1 [Compound 34, 1,5-Dithia-spiro[5.6]dodec-3-yl-ammonium chloride]
AM2 V27A % inhibition at 100 μM (A/M2-V27A [1]): 33 (0%) 34 (46.9%)

NC12CC3CC(CC(C3)C1)C2 [Amantadine, reference compound]
inhibition of plaque formation (in words) [3]: failed to inhibit plaque formation | % remaining activity after application of 100 μM compound (A/M2-A30T): 104.6 ± 4.3% | % remaining activity after application of 100 μM compound (A/M2-L26F): 51.8 ± 3.5% | % remaining activity after application of 100 μM compound (A/M2-V27G): 95 ± 4.9% | % remaining activity after application of 100 μM compound (A/M2-V27A [2]): 93.07 ± 1.9% | % remaining activity after application of 100 μM compound (A/M2-G34E): 100.4 ± 6.7% | % remaining activity after application of 100 μM compound (A/M2-S31N): 65.3 ± 2.7%

C1CCC2(CC1)CCN(C1=NCCN1)CC2 [BL-1743, 3-(4,5-Dihydro-1H-imidazol-2-yl)-3-aza-spiro[5.5]undecane, reference compound]
inhibition of plaque formation (in words) [3]: failed to inhibit plaque formation | % remaining activity after application of 100 μM compound (A/M2-A30T): 102 ± 2.3% | % remaining activity after application of 100 μM compound (A/M2-L26F): 89.2 ± 4.8% | % remaining activity after application of 100 μM compound (A/M2-V27G): 82.9 ± 9.3% | % remaining activity after application of 100 μM compound (A/M2-V27A [2]): 97.4 ± 1.8% | % remaining activity after application of 100 μM compound (A/M2-G34E): 89.8 ± 6.9% | % remaining activity after application of 100 μM compound (A/M2-S31N): 100 ± 0.67%

— patent US9464075B2 (priority 2008, dated 2016)
